Data on five compounds can be found in PMC8329300, “X-ray crystallography reveals molecular recognition mechanism for sugar binding in a melibiose transporter MelB” (Communications Biology, 2021).

Assay [1] addresses T1, WT MelBSt (Salmonella typhimurium, UniProt P30878).
T1 construct: Cys scanning mutagenesis for the full-length MelBSt; His10 (C); made in house; host or cells: E. coli DW2
In words: biochemical. The settings on record: for effect on Trp→D2G FRET of D2G-bound protein (displacement): added to D2G-bound WT MelBSt; for IC50: IC50 of galactoside displacement on bound D2G, DDMB, 10 μM D2G, value could be over-estimated. The class given is binding. As for the experimental part:
(§1) Fig. 1 Functional characterizations. a [^3H] Melibiose transport time course with intact cells. […] Inset, melibiose fermentation assay. Transformants with DW2 strain were plated on MacConkey agar plates containing 30 mM melibiose as the sole carbohydrate source and pH sensor neutral red, and incubated at 37 °C for 16–18 h before imaging. Number of tests = 3, from different batch of cells or duplicate measurements from same batch of sample. b Ligand binding by Trp→dansyl galactoside (D^2G) FRET assay. Purified proteins at 1 μM concentration in 20 mM Tris-HCl, pH 7.5, 100 mM CholCl, 10% glycerol, and 0.03% UDM were subjected to steady-state fluorescence measurements as described in Methods. On the time-trace, 1.8 μL of 1 mM D^2G at 10 μM was added into 180 μL of protein solutions at 1-min point, followed by supplying 10 μL of 5 mM DDMB or 5 mM α-NPG to displace the bound D^2G. For testing Na^+ or Li^+ binding, they are added into the solution before displacement with the second sugar. The structure of DDMB or α-NPG is shown in a chair form, and the carbon positions are labeled. Glycosidic bonds are indicated by arrows. Both are α-galactosides containing a substituent at the anomeric carbon-1. The data were from duplicate measurements.
(§2) Steady-state fluorescence measurements were performed with an AMINCO-Bowman series 2 spectrometer with purified MelBSt at 1 μM in 20 mM Tris-HCl, pH 7.5, 100 mM CholCl, 10% glycerol, 0.03% UDM. Using an excitation wavelength at 290 nm, the emission intensity was recorded at 490 nm. On a time-trace, D^2G, NaCl or LiCl, then DDMB or α-NPG, were sequentially added into the protein solutions at a 1 min-interval. […] An identical volume of water was used for the control. The decrease in intensity after each addition of DDMB or α-NPG was corrected by the dilution effect and plotted as a function of the accumulated α-NPG concentrations or estimated DDMB concentrations. The 50% inhibitory concentration (IC50) was determined by fitting a hyperbolic function to the data (OriginPro 2020b). The final concentration of each detergent is estimated to be 234 μM, which is less than their CMC value for (DDMB, 295 μM).
(§3) Supplementary Figure 2. Determination of DDMB binding affinity to MelBSt. (a) Titration with DDMB or a-NPG. MelBSt in 20 mM Tris-HCl, pH 7.5, 100 mM CholCl, 10% glycerol, 0.03% UDM without (1) or with 100 mM NaCl (2) were added with D2G at 10 μM at 1-min time point as indicated by triangle symbols on the Trp®dansyl FRET time trace. Starting at the 2-min of time point, DDMB or a-NPG solution was supplemented consecutively at a 1-min interval into MelBSt solution till no change in fluorescence intensity reached as indicated in star symbols. DDM and UDM were used as negative controls. 1% DDM or UDM was titrated into the mixture, The […]
(§4) At 2-min time point, additions of galactosides were colored in pink, a-NPG in yellow, UDM in blue, DDM in light blue, water in gray traces, respectively. (b) IC50 determination. The intensity decrease at each titration were corrected by the dilution effect, and plotted as a function of the accumulated DDMB or α-NPG concentration. The 50% inhibitory concentration (IC50) was determined by fitting the data to a hyperbolic function (OriginPro 2020b). Results are presented in […]
(§5) (1 picture or pasted object on this page, not shown here)

The target of assay [2] is T2, D59C MelBSt (Salmonella typhimurium, UniProt P30878, D59C).
T2 construct: Cys scanning mutagenesis for the full-length MelBSt; His10 (C); made in house; host or cells: E. coli DW2
In words: Trp→dansyl galactoside (D2G) FRET time trace and IC50 of D2G displacement (D59C). The settings on record: IC50 of galactoside displacement on bound D2G, DDMB, 10 μM D2G, value could be over-estimated. Type of assay: binding. As for the experimental part: as §1, §2, §3, §4, §5

Another assay concerns the target T3, D59A MelBSt (Salmonella typhimurium, UniProt P30878, D59A).
T3 construct: Cys scanning mutagenesis for the full-length MelBSt; His10 (C); made in house; host or cells: E. coli DW2
In words: Trp→dansyl galactoside (D2G) FRET time trace (D59A). Type of assay: binding. The settings on record: no Na+ or Li+ stimulation. As for the experimental part:
Fig. 1 Functional characterizations. a [^3H] Melibiose transport time course with intact cells. E. coli DW2 strain (melB^−, lacZ^−Y^−) expressed with the WT, D59C, or D59A MelBSt mutants were subjected to [^3H]melibiose active transport assay at 0.4 mM and 10 mCi/mmol in the presence of 20 mM or 100 mM NaCl or LiCl by a fast filtration method. Inset, melibiose fermentation assay. Transformants with DW2 strain were plated on MacConkey agar plates containing 30 mM melibiose as the sole carbohydrate source and pH sensor neutral red, and incubated at 37 °C for 16–18 h before imaging. Number of tests = 3, from different batch of cells or duplicate measurements from same batch of sample. b Ligand binding by Trp→dansyl galactoside (D^2G) FRET assay. Purified proteins at 1 μM concentration in 20 mM Tris-HCl, pH 7.5, 100 mM CholCl, 10% glycerol, and 0.03% UDM were subjected to steady-state fluorescence measurements as described in Methods. […]
Steady-state fluorescence measurements were performed with an AMINCO-Bowman series 2 spectrometer with purified MelBSt at 1 μM in 20 mM Tris-HCl, pH 7.5, 100 mM CholCl, 10% glycerol, 0.03% UDM. Using an excitation wavelength at 290 nm, the emission intensity was recorded at 490 nm. […]

In assay [3] the target is T1, WT MelBSt. In words: biochemical. The class given is binding. How it is done: (§6) All ITC ligand-binding assays were performed with the TA Instruments (Nano-ITC device) at 25 °C. In a typical experiment, the titrand (MelBSt) in the ITC sample cell was titrated with the specified titrant (placed in the Syringe) by an incremental injection of 2-µL aliquots at an interval of 300 s at a constant stirring rate of 250 r.p.m. All samples were degassed using a TA Instruments Degassing Station (model 6326) for 15 min prior to the titration. Data processing was performed with the NanoAnalyze (version 3.6.0 software) provided with the ITC equipment. The normalized heat changes were subtracted from the heat of dilution elicited by last few injections, where no further binding occurred; the corrected heat changes were plotted against the molar ratio of titrant versus titrand. The values for association constant (Ka) value were determined by fitting the data with a one-site independent-binding model. At most cases, the binding stoichiometry (N) number was fixed to 1 since it is a known parameter, which can restrain the data fitting and achieve more accurate results. The dissociation constant Kd = 1/Ka.
(§7) Supplementary Figure 1. ITC measurements. ITC measurements were performed at 25 °C as described in Methods. (a) Binding thermography. For all tests, ligands and proteins are buffer- […]
(§8) (1 picture or pasted object on this page, not shown here) […]
(§9) matched. For melibiose binding measurements, a solution of 80 mM or 10 mM in the absence or presence of NaCl at 100 mM, was injected into the ITC sample cell containing the WT MelBSt at 80 μM without or with 100 mM NaCl, respectively. With the D59C mutant, […] was used. For α-NPG binding measurements, 0.5 mM or 0.4 mM solution was used to titrate the WT or D59C mutant at 50 μM in the absence or presence or 100 mM NaCl, respectively. For the Na+ or Li+ binding measurements, 5 mM or 2 mM solution was used to titrate WT MelBSt at 80 μM without or with 50 mM melibiose, respectively; 40 mM solutions was used to titrate the D59C mutant. (b) binding isotherm. Curve fit was carried out with a one-site independent-binding model included in the NanoAnalyze software (version 3.6.0).

Assay [4] has as its target T2, D59C MelBSt. In words: biochemical. Type of assay: binding. The settings on record: even with increased concentration or in the presence of melibiose; Kd not determinable. How it is done: as §6, §7, §8, §9
Assay [5] deals with T1, WT MelBSt. The settings on record: ITC 25 °C, data from publication or averaged with more tests, read-out: Kd, Na+ binding, cited from earlier work.

Each structure is given as a SMILES string. Several values for one entry are separate records, joined by “and”; a condition that tells them apart may be missing. Equal entries are not always repeated. Where two headings read alike, the source gives them in different places.

T2 sequence (P30878 whole entry D59C): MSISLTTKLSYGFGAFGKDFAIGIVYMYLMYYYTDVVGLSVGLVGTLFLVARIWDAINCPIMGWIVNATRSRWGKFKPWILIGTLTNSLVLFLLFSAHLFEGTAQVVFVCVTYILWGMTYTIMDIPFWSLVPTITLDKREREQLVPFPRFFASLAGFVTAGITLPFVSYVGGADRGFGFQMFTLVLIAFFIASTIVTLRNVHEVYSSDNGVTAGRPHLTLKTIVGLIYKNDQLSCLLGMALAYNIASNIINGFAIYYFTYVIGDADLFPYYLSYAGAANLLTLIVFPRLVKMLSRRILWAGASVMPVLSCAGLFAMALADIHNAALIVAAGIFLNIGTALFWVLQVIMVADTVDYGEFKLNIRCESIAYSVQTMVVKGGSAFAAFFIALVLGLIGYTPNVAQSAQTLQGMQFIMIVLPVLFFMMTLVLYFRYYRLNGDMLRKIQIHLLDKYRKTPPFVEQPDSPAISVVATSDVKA
T1 sequence (P30878 whole entry): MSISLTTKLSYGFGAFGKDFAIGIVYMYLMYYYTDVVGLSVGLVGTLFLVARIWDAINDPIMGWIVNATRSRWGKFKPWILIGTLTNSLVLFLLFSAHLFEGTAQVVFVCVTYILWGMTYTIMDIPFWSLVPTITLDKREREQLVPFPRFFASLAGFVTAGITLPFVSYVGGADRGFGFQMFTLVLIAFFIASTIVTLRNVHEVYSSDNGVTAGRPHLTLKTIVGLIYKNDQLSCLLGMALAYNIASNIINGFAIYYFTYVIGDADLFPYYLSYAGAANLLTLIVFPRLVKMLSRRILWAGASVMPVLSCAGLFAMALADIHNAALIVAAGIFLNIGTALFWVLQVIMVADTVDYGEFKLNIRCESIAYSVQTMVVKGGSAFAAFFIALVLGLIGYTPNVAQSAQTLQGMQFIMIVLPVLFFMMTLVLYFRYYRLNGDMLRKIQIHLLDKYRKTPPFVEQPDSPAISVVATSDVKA
T3 sequence (P30878 whole entry D59A): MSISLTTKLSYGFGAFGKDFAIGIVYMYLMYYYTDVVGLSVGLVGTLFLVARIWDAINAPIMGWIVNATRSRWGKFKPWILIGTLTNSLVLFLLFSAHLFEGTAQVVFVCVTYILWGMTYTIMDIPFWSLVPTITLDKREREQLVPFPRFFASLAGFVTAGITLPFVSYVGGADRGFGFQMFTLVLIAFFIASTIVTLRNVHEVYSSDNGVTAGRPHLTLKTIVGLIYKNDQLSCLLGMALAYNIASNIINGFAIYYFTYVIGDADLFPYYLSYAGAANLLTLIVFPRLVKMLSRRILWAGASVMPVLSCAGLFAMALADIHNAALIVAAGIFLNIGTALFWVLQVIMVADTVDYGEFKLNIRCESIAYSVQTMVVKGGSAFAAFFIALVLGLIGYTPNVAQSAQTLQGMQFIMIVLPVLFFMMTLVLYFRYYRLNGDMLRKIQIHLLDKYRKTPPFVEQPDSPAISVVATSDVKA

Regarding `CCCCCCCCCCCCO[C@@H]1O[C@H](CO)[C@@H](O[C@H]2O[C@H](CO)[C@@H](O)[C@H](O)[C@H]2O)[C@H](O)[C@H]1O` [DDM, dodecyl-β-D-maltopyranoside], on WT MelBSt [1], the “effect on Trp→D2G FRET of D2G-bound protein (displacement)” value is “only showed a dilution effect similar to the addition of water”.
The IC50 is the concentration that gives 50% inhibition. Turning to `CCCCCCCCCCCCOC1OC(COC2OC(CO)C(O)C(O)C2O)C(O)C(O)C1O` [DDMB, dodecyl-β-D-melibioside], the IC50 at D59C MelBSt [2] (Apo) is 20 µM and 20.2 µM; on D59C MelBSt [2] (Na+ (100 mM)), 23.6 ± 3.9 µM; on WT MelBSt [1] (Apo), 26.1 ± 5.46 µM; on WT MelBSt [1] (Na+ (100 mM)), 4.79 ± 0.28 µM. The “effect on Trp→D2G FRET of D2G-bound protein (displacement)” value at WT MelBSt [1] is listed as “large decrease in fluorescent intensity”. Besides, at WT MelBSt [1] (apo vs Na+), the “decrease of IC50 in the presence of Na+” value was determined as 5 fold. The “ligand binding by Trp→D2G FRET” value at D59A MelBSt is reported as “binds”.
`[Na+]` [Na^+]: the “cooperativity, change of Kd with melibiose” value on WT MelBSt [3] (Na+ binding, apo vs melibiose) turned out to be 8 fold. In addition, the Kd at WT MelBSt [3] (apo MelB, rebuttal letter, read-out: affinity of apo MelB) was 500 µM; at WT MelBSt [5] (Apo), 680 ± 30 µM; at WT MelBSt [5] (Melibiose (50 mM)), 80 ± 10 µM. The “heat changes derived from cation binding (ITC)” value at D59C MelBSt [4] is “quite small”.
For `CCCCCCCCCCCO[C@@H]1O[C@H](CO)[C@@H](O[C@H]2O[C@H](CO)[C@@H](O)[C@H](O)[C@H]2O)[C@H](O)[C@H]1O` [UDM, undecyl-β-D-maltopyranoside], the “effect on Trp→D2G FRET of D2G-bound protein (displacement)” value at WT MelBSt [1] is reported as “only showed a dilution effect similar to the addition of water”.
On to `[Li+]` [Li^+], for which the Kd is 400 ± 100 µM at WT MelBSt [3] (Apo, ITC 25 °C, read-out: Kd, Li+ binding) and 70 ± 10 µM on WT MelBSt [3] (Melibiose (50 mM), ITC 25 °C, read-out: Kd, Li+ binding). For the same compound, the “decrease of Kd in the presence of melibiose” value on WT MelBSt [3] (Li+ binding, apo vs melibiose) stood at 6 fold. Moreover, on D59C MelBSt [4], the “heat changes derived from cation binding (ITC)” value is recorded as “quite small”.
